The test system of one data set is K562/CD19 target cells. Briefly: Bioluminescence-based cytolytic activity of CD8+ CD19 CAR T cells. The note with it: TMP 1000 nM. Format: cell-based, human. As to the method: (5C) Specific cytolytic activity of CD8+ CD19 CAR-T cells against K562/CD19 target cells. Cytolytic activity of CD8+ CD19-CAR T cells was evaluated by co-culture with K562/CD19 or K562 target cells using a bioluminescence-based assay. The assay was setup with effector T cells (CD8+ CD19-CAR T cells) at various effector/target (E:T) ratios in 96 well flat bottom plates. Luminescence intensities were recorded at specific time points (1, 3, 5, 24 hours) using a luminometer. Specific lysis was calculated using the standard formula. Data shown are from one representative experiment.
(5D) Specific cytolytic activity of CD8+ CD19 CAR-T cells engineered with dd-SB100X fusion transposase vs. wild type SB100X transposase. […] Data was analyzed by unpaired t-test.
Anonymous healthy donor blood samples were received upon written consent to participate in research protocols approved by the Institutional Review Board of the Universitätsklinikum Würzburg (UKW). Blood samples were processed for T cells isolation as published earlier (Querques et al., 2019). Briefly, Peripheral blood mononuclear cells (PBMCs) were isolated by density centrifugation with Biocoll separating solution (Biochrom). Both CD4+ and CD8+ T cells were sorted by negative isolation approach using microbeads and magnetic associated cell sorting (MACS, Miltenyi) methods as described by the manufacturer. […]

A further data set concerns human CD4+ T cells. Briefly: Gene transfer (EGFRt+ T cells, flow cytometry) with degron-SB100X in CD4+ T cells. Format: cell-based. The settings on record: for gene transfer rate (EGFRt+ T cells): day 7 post-nucleofection, n=1. As to the method:
(1E) Testing the activity of IKZF3 zinc finger-based degron-SB100X fusion-transposase in human CD4+ T cells. For each condition, 2 million CD3/CD28 activated CD4+ T cells were nucleofected with minicircle DNA encoding a CD19-CAR_EGFRt SB transposon, and plasmid DNA encoding either the wild type SB transposase (SB100X) or the SB fusion-transposase (degron-SB100X). Cells were cultured either in the presence of Pomalidomide (P; 10 μM) or DMSO (D) at the time of nucleofection. At 7 days post-nucleofection, flow cytometric analysis was performed to determine the percentage of T cells that expresses the EGFRt reporter that was encoded in cis with the CD19-CAR. Top panel: Dot plots showing EGFRt expression on day 7 post-nucleofection. Bottom panel: Bar graph showing the percentage of EGFRt+ T cells on day 7 post-nucleofection (n=1).
Anonymous healthy donor blood samples were received upon written consent to participate in research protocols approved by the Institutional Review Board of the Universitätsklinikum Würzburg (UKW). Blood samples were processed for T cells isolation as published earlier (Querques et al., 2019). Briefly, Peripheral blood mononuclear cells (PBMCs) were isolated by density centrifugation with Biocoll separating solution (Biochrom). Both CD4+ and CD8+ T cells were sorted by negative isolation approach using microbeads and magnetic associated cell sorting (MACS, Miltenyi) methods as described by the manufacturer. The isolated CD4+ and CD8+ T cells were cultured in T cell medium (RPMI-1640 with 10% (vol/vol) human serum, 2 mM L-glutamine, 100 U ml-1 penicillin-streptomycin) containing IL-2 (50 units per mL) and activated by anti-CD3/CD28 bead stimulation (Thermo Fisher). Two days post-activation, approximately 2 million T cells were nucleofected with vectors (1 μg of CD19 CAR (EGFRt)-encoding transposon as plasmid or minicircle DNA; 1 μg of mRNA encoding SB transposase) or 10 μg of hsSB protein (Querques et al., 2019) using a 4D Nucleofector (Lonza) as per the manufacturer's instructions. […]
In general terms: Flow cytometry measures light scatter and fluorescence of single cells or particles in a stream.

Consider `COc1cc(Cc2cnc(N)nc2N)cc(OC)c1OC` [TMP, trimethoprim], for which the “effect of TMP treatment on subsequent function of CAR T cells” value in the data set with K562/CD19 target cells is given as “no adverse effects”.

For `Nc1cccc2c1C(=O)N(C1CCC(=O)NC1=O)C2=O` (stereo not shown) [pomalidomide, reference compound], in the data set on human CD4+ T cells (pomalidomide 10 μM vs DMSO), the “effect of pomalidomide on activity of wild type SB100X (lacking the degron tag)” value is given as “interfered with the activity of wild type SB100X”. Turning to “degron-SB100X: IKZF3 zinc finger degron tag fused via linker to N-terminus of SB100X transposase; SEQ ID NO: 3”, the “gene transfer rate (EGFRt+ T cells)” value in the data set with human CD4+ T cells (DMSO) is ~46.4%; with human CD4+ T cells (pomalidomide 10 μM), ~1.74%.

Values taken from patent US20250361284A1, “TRANSPOSASE FUSION PROTEINS FOR USE IN CELL AND GENE THERAPY” (JULIUS-MAXIMILIANS-UNIVERSITÄT WÜRZBURG, priority 2022, published 2025).
